Assay results: PubChem BioAssay (NCI)
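Interpolation was linear, between the two tested concentrations surrounding the appropriate level; five concentrations were tested over 48 hours in 96-well plates. Definition used: TGI = concentration required for complete inhibition of growth.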

Experiments:
Assay in all cases: NCI anticancer screen, dose series, 48 h
[1] = system: 786-0 renal
[2] = system: A498 renal
[3] = system: A549 NSCLC
[4] = system: ACHN renal
[5] = system: CAKI-1 renal
[6] = system: CCRF-CEM leukemia
[7] = system: COLO 205 colon
[8] = system: DLD-1 colon
[9] = system: DMS 273 small cell lung
[10] = system: EKVX NSCLC
[11] = system: HCT-15 colon
[12] = system: HL-60(TB) leukemia
[13] = system: HOP-18 NSCLC
[14] = system: HOP-92 NSCLC
[15] = system: HT29 colon
[16] = system: IGROV1 ovarian
[17] = system: K-562 leukemia
[18] = system: KM12 colon
[19] = system: KM20L2 colon
[20] = system: LOX IMVI melanoma
[21] = system: LXFL 529 NSCLC
[22] = system: M14 melanoma
[23] = system: M19-MEL melanoma
[24] = system: MALME-3M melanoma
[25] = system: MOLT-4 leukemia
[26] = system: NCI-H226 lung
[27] = system: NCI-H23 lung
[28] = system: NCI-H460 lung
[29] = system: NCI-H522 lung
[30] = system: OVCAR-3 ovarian
[31] = system: OVCAR-4 ovarian
[32] = system: OVCAR-5 ovarian
[33] = system: OVCAR-8 ovarian
[34] = system: RPMI-8226 leukemia
[35] = system: RXF 393 renal
[36] = system: RXF-631 renal
[37] = system: SF-295 CNS
[38] = system: SF-539 CNS
[39] = system: SK-MEL-2 melanoma
[40] = system: SK-MEL-5 melanoma
[41] = system: SK-OV-3 ovarian
[42] = system: SN12C renal
[43] = system: SNB-19 CNS
[44] = system: SW-620 colon
[45] = system: TK-10 renal
[46] = system: U251 CNS
[47] = system: UACC-257 melanoma
[48] = system: UACC-62 melanoma
[49] = system: UO-31 renal
[50] = system: XF 498 CNS

Measured: TGI

COc1ccc(N(CC(=O)O)S(=O)(=O)c2ccccc2)cc1
> 100 µM: [1] | [2] | [3] | [4] | [5] | [6] | [7] | [8] | [9] | [10] | [11] | [12] | [13] | [14] | [15] | [16] | [17] | [18] | [19] | [20] | [21] | [22] | [23] | [24] | [25] | [26] | [27] | [28] | [29] | [30] | [31] | [32] | [33] | [34] | [35] | [36] | [37] | [38] | [39] | [40] | [41] | [42] | [43] | [44] | [45] | [46] | [47] | [48] | [49] | [50]
